# Data reported in patent US20090074716A1, “METHOD FOR TREATING INFLUENZA VIRUS INFECTION” (priority 2006, published 2009).
# “Also recorded” adds a separate entry of the source. Where a SMILES comes first, the peptide text is derived from it. The star is where a group is joined. Cbz = O=C(OCc1ccccc1)*
# Assays:
# [1] = test system: IκBα; assay: TNFα-induced IκBα degradation (NF-κB activation), Western blot, HEK293 cells; type: cell-based; details: 1 h pre-incubation, 15 min TNFα
# [2] = test system: IκBα; assay: TNFα-induced IκBα degradation (NF-κB activation), Western blot, A549 cells; type: cell-based, human; details: 1 h pre-incubation, 15 min TNFα
# [3] = test system: avian influenza virus A/FPV/Bratislava/79 (H7N7); type: cell-based, human A549 lung epithelium carcinoma cells
# [4] = after intravenous application; cited from earlier work
# [5] = test system: 26S proteasome; details: cited from earlier work
# [6] = test system: TRAIL and FasL/CD95L; type: cell-based, human
# [7] = test system: avian influenza A virus A/FPV/Bratislava/79; type: cell-based, human lung epithelium cell line A549
# [8] = test system: avian influenza A virus A/FPV/Bratislava/79; set-up: species or system C57B1/6 mice; details: mouse, in vivo
smiles,measurement,setting,value
"CC(C)C[C@H](NC(=O)[C@H](Cc1ccccc1)NC(=O)c1cnccn1)B(O)O [PS341, pyranosyl-phenyl-leucinyl-boric acid]",prevention of TNFα-induced IκBα-degradation,[1]; 100 nM,not in a position to prevent
same,prevention of TNFα-induced IκBα-degradation,[2]; 100 nM,not in a position to prevent
same,reduction of the virus titre,[3],over 2 logarithmic levels
same,biological availability,[4],biologically available
CC(C)c1nc(CN(C)C(=O)N[C@H](C(=O)N[C@@H](Cc2ccccc2)C[C@H](O)[C@H](Cc2ccccc2)NC(=O)OCc2cncs2)C(C)C)cs1 [Ritonavir],concentration with unspecific effect on the proteasome,[5],approx. 10 micrograms
CC(=O)N[C@@H](CSC(=O)[C@]1([C@@H](O)C(C)C)NC(=O)[C@H](C)[C@@H]1O)C(=O)O [lactacysteine],blocking of TNFα-induced IκBα-degradation,[1]; 1 μM,not effective enough to block
same,blocking of TNFα-induced IκBα-degradation,[2]; 1 μM,not effective enough to block
same,reduction of the virus titre,[3],reduction
"CC(C)C[C@@H](C=O)NC(=O)[C@H](CC(C)C)NC(=O)[C@H](CC(C)C)NC(=O)OCc1ccccc1 [MG132, N-carbobenzoxy-L-leucinyl-L-leucinyl-L-leucinal] (Cbz-Leu-Leu-Leu-aldehyde)",virus-induced expression of FasL,[6],clearly reduced; also recorded: blocks
same,virus-induced expression of TRAIL,[6],clearly reduced; also recorded: blocks
same,influenza virus replication,[7],blocks
same,reduction of the virus titre,[7],up to 10 times
same,survival rate of infected mice versus untreated controls,[8],significantly increased
